Test results reported in US9089570B2, “Compositions for treating cancers having acquired resitance to prior chemotherapeutic and targeted drugs using carboxyamidotriazole orotate” (TACTICAL THERAPEUTICS INC, priority 2013, dated 2015).

Columns and labels:
[1] = test system: imatinib mesylate-resistant chronic myeloid leukemia cells; conditions: by down-regulating bcr-abl, Alessandro et al, 2008; cited from earlier work
head and neck cancer = conditions: cited from earlier work
[2] = test system: refractory head and neck tumor (PI3KCA, E545K); test: Phase I clinical study of CTO, patient with refractory head and neck cancer; format: in vivo, human; conditions: 285 mg/m2/day
From the text: “Progressive disease” is defined as an increase of 25% or greater in the product of the largest perpendicular diameters for at least one bidimensionally measurable tumor, or an increase of 25% or greater at least one undimensionally measurable tumor or appearance of a new lesion or clinical deterioration. […]

[3] = test system: refractory NSCLC tumor (PI3KCA, E545K); test: Phase I clinical study of CTO, patient with refractory NSCLC (PI3KCA, E545K); format: in vivo, human; conditions: 219 mg/m2/day
Procedure: (§1) This invention contemplates treating these cancers and other cancers at any stage from the discovery of the cancer to the advanced stage, starting with the first step of carrying out the genotyping of the primary and secondary tumors. The effectiveness of the CTO treatment is determined by controlled clinical studies. The cancers are evaluated by measuring tumors no more than 14 days before the start of the treatment, and evaluated after 2 cycles of 28 days after day 1 of the administration of the first dose of CTO. The tumor size is measured by the most accurate measurement such as PET-CT, CT scan, MRI scan, x-ray, ultrasound, etc. […]
(§2) “Partial response” means a) for bidimensionally measurable tumors, a decrease of at least 50% in the sum of the products of the largest perpendicular diameters of all measurable tumors as determined by two observations not less than four weeks apart, b) for undimensionally measurable tumors, a decrease by at least 50% in the sum of the largest diameters of all tumors as determined by two observation not less than four weeks apart. […]
In the present invention, a patient with NSCLC who had received prior treatment with paclitaxel, carboplatin erlotinib and docetaxel. […] After having established the baseline clinical parameters, the patient was given 219 mg/m2/day for a period of 28 days for two cycles and the tumor was measured. […]

[4] = test system: refractory NSCLC tumor (EGFR, ELREATS 746-752 V (exon 19)); test: Phase I clinical study of CTO, patient with refractory NSCLC (EGFR exon 19); format: in vivo, human; conditions: EGFR exon 19 mutation, 219 mg/m2/day
Procedure: as §1, with “etc. The criteria for evaluating response are described in the revised Response Evaluation Criteria in Solid Tumors Guidelines, Eisenhauer et al, 1990 and by the Macdonald Criteria for response to high grade gliomas, Macdonald et al, 1990.” for “etc.”
as §2

[5] = test system: refractory metastatic colorectal cancer (BRAF V660E); test: Phase I clinical study of CTO, patient with refractory metastatic colorectal cancer; format: in vivo, human; conditions: 285 mg/m2/day
Procedure: as §1, §2
After having established the baseline clinical parameters, the patient was given 285 mg/m2/day for a period of 28 days for two cycles and the tumor was measured. […]

[6] = test system: refractory renal cell carcinoma; test: Phase I clinical study of CTO, patient with refractory renal cell carcinoma; format: in vivo, human; conditions: 75 mg/m2/day
Procedure: as §1, §2
After having established the baseline clinical parameters, the patient was given 75 mg/m2/day for a period of 28 days for two cycles and the tumor was measured. […]

[7] = test system: Akt and Erk1/2 phosphorylation; conditions: exosomes-stimulated HUVEC cell; Corrado et al, 2012; cited from earlier work
[8] = FOLFIRI (fluorouracil, leucovorin, irinotecan) regimen; Carrato et al 2013; cited from earlier work

## NC(=O)c1nnn(Cc2cc(Cl)c(C(=O)c3ccc(Cl)cc3)c(Cl)c2)c1N [CAI, Carboxyamidotriazole]
[1]
  apoptosis: induces apoptosis

## C#Cc1cccc(Nc2ncnc3cc(OCCOC)c(OCCOC)cc23)c1 [erlotinib]
Head and neck cancer
  improvement when added to chemotherapy and radiotherapy: no improvement

## NC(=O)c1nnn(Cc2cc(Cl)c(C(=O)c3ccc(Cl)cc3)c(Cl)c2)c1N.O=C(O)c1cc(=O)[nH]c(=O)[nH]1 [CTO, carboxyamidotriazole orotate]
[2]; 28-day cycles
  duration of stable disease and partial response: more than six
[2]; PI3KCA E545K, prior cetuximab, cisplatin, taxotere, 28 days, two cycles
  tumor response measured after two cycles: responded by not progressing
[3]; 28-day cycles
  duration of stable disease and partial response: more than twelve
[3]; prior paclitaxel, carboplatin, erlotinib, docetaxel, 28 days, two cycles
  tumor response measured after two cycles: responded by not progressing
[4]; 28-day cycles
  duration of stable disease and partial response: more than twelve
[4]; prior carboplatin, paclitaxel, docetaxel, erlotinib, cisplatin, gemcitamide, premetrexed, 28 days, two cycles
  tumor response measured after two cycles: responded by not progressing
[5]; 28-day cycles
  duration of stable disease and partial response: six
[5]; prior leucovorin, fluorouracil, oxaliplatin, bevacizumab, cetuximab, capecitabine, panitumumab, irinotecan, 28 days, two cycles
  tumor response measured after two cycles: responded to CTO by not progressing
[6]; 28-day cycles, CTO continued
  duration of stable disease and partial response: over twelve
[6]; prior IL-2, pegylated IFN, sorafenib, sunitnib, erlotinib, torisel, 28 days, two cycles
  tumor response measured after two cycles: responded by not progressing
[7]
  Akt and Erk1/2 phosphorylation: inhibits

## CCN(CC)CCNC(=O)c1c(C)[nH]c(/C=C2\C(=O)Nc3ccc(F)cc32)c1C [Sunitnib]
[8]
  superiority over FOLFIRI alone: did not prove superior over FOLFIRI alone
